From paper PMC9322451 (Clinical Pharmacology in Drug Development, 2022)
Where two headings read alike, the source gives them in different places.

Test: Phase 1 part B: PK of single 40 mg oral dose, fasted vs fed (food effect)
Type: in vivo, human
Details: for AUC(0-inf) / AUC(0-t) / Cmax / half-life / Tmax: human, plasma
Method: Participants were admitted to the clinical unit the day before doses were administered on days 1 and 8 and discharged on days 2 and 9, after collection of the 36‐hour postdose PK sample. The washout period between doses was 7 days. […] After dosing, participants were required to remain upright for at least 2 hours and refrain from food and drink for at least 4 hours; water was allowed after 2 hours.
For part B, blood sampling for PK assessments was performed following single‐dose administration on days 1 and 8 at 0 (predose), 0.25, 0.5, 1, 1.5, 2, 3, 3.5, 4, 6, 8, 10, 12, 24, 36, and 72 hours after dosing. PK parameters included Cmax, tmax, AUClast, AUC∞, CL/F, apparent volume of distribution after drug administration, and t1/2.
The assay range was 0.250 to 150 ng/mL, with overall precision and accuracy for intra‐ and interassays of 2.2% to 5.9% and −2.7% to 0.3%, respectively.
PK parameters were generated using noncompartmental analysis and were based on the PK population, which included all participants who received at least 1 dose of assigned treatment (safety population) and had evaluable Cmax and AUC parameters without significant protocol deviations. For part B, the PK population included participants who completed both treatment periods and had sufficient concentration data from both periods to fully derive the PK parameters.
Estimates and 90% CIs for the differences between treatment means were computed and converted to ratios by antilog transformation. Results for the geometric mean ratio of treatments (fasted vs fed) were tabulated for Cmax, AUClast, and AUC∞.

[1] = oral, 40 mg, Japanese n=9, fasted, least squares mean
[2] = oral, 40 mg, Japanese n=9, fed, least squares mean
[3] = oral, 40 mg, White n=10, fasted, least squares mean
[4] = oral, 40 mg, White n=10, fed, least squares mean
[5] = po, 40 mg, 40 mg single oral dose, Japanese, fasted, mean (CV%)
[6] = po, 40 mg, 40 mg single oral dose, Japanese, fed, mean (CV%)
[7] = po, 40 mg, 40 mg single oral dose, White, fasted, mean (CV%)
[8] = po, 40 mg, 40 mg single oral dose, White, fed, mean (CV%)
[9] = po, 40 mg, 40 mg single oral, fasted, Japanese
[10] = po, 40 mg, 40 mg single oral, fasted, White

Cn1c(=O)oc2ccc(-c3ccc(C[C@@H](C#N)NC(=O)[C@@H]4CNCCCO4)cc3)cc21 [Brensocatib]
effect of food on exposure (40 mg): no effect | CL/F (40 mg single oral, fasted, Japanese): 7.7 L/h | CL/F (40 mg single oral, fasted, White): 6.5 L/h | AUClast GMR (fed/fasted), % (90% CI) (40 mg, Japanese n=9): 98.4 (94.4‐102.5) % | AUC∞ GMR (fed/fasted), % (90% CI) (40 mg, Japanese n=9): 99.2 (95.7‐102.8) % | Cmax GMR (fed/fasted), % (90% CI) (40 mg, Japanese n=9): 82.4 (67.9‐99.9) % | Cmax lower in the fed state (40 mg, Japanese participants): 17.6% | AUClast GMR (fed/fasted), % (90% CI) (40 mg, White n=10): 101.3 (96.8‐106.0) % | AUC∞ GMR (fed/fasted), % (90% CI) (40 mg, White n=10): 99.6 (94.6‐104.9) % | Cmax GMR (fed/fasted), % (90% CI) (40 mg, White n=10): 101.2 (81.4‐125.9) % | AUC(0-inf) [1]: 5270 ng·h/mL | AUC(0-t) [1]: 4920 ng·h/mL | Cmax [1]: 356 ng/mL | AUC(0-inf) [2]: 5230 ng·h/mL | AUC(0-t) [2]: 4840 ng·h/mL | Cmax [2]: 293 ng/mL | AUC(0-inf) [3]: 6200 ng·h/mL | AUC(0-t) [3]: 5150 ng·h/mL | Cmax [3]: 269 ng/mL | AUC(0-inf) [4]: 6180 ng·h/mL | AUC(0-t) [4]: 5210 ng·h/mL | Cmax [4]: 272 ng/mL | half-life (oral, 40 mg, fasted and fed, White, read-out: Mean t1/2 (converted)): 27 to 28 h | Tmax (oral, 40 mg, fasted, Japanese, read-out: median Tmax): 1.3 h | Tmax (oral, 40 mg, fasted, White, read-out: median Tmax): 1.3 h | half-life (oral, 40 mg, fed, Japanese, read-out: Mean t1/2 (converted)): 18.4 h | Tmax (oral, 40 mg, fed, Japanese, read-out: median Tmax): 3 h | Tmax (oral, 40 mg, fed, White, read-out: median Tmax): 2 h | AUC(0-inf) [5]: 5470 ng·h/mL | AUC(0-t) [5]: 5010 ng·h/mL | Cmax [5]: 352 ng/mL | half-life (po, 40 mg, 40 mg single oral dose, Japanese, fasted, mean (CV%), read-out: t1/2 (converted)): 19.3 h | Tmax (po, 40 mg, 40 mg single oral dose, Japanese, fasted, median (range), read-out: Tmax): 1.27 h | AUC(0-inf) [6]: 5490 ng·h/mL | AUC(0-t) [6]: 4980 ng·h/mL | Cmax [6]: 297 ng/mL | half-life (po, 40 mg, 40 mg single oral dose, Japanese, fed, mean (CV%), read-out: t1/2 (converted)): 19.4 h | Tmax (po, 40 mg, 40 mg single oral dose, Japanese, fed, median (range), read-out: Tmax): 3 h | AUC(0-inf) [7]: 6680 ng·h/mL | AUC(0-t) [7]: 5480 ng·h/mL | Cmax [7]: 301 ng/mL | half-life (po, 40 mg, 40 mg single oral dose, White, fasted, mean (CV%), read-out: t1/2 (converted)): 28.9 h | Tmax (po, 40 mg, 40 mg single oral dose, White, fasted, median (range), read-out: Tmax): 1.25 h | AUC(0-inf) [8]: 6500 ng·h/mL | AUC(0-t) [8]: 5470 ng·h/mL | Cmax [8]: 302 ng/mL | half-life (po, 40 mg, 40 mg single oral dose, White, fed, mean (CV%), read-out: t1/2 (converted)): 27.5 h | Tmax (po, 40 mg, 40 mg single oral dose, White, fed, median (range), read-out: Tmax): 2 h | AUC(0-inf) [9]: 5180 ng·h/mL | AUC(0-t) [9]: 4820 ng·h/mL | Cmax [9]: 338 ng/mL | half-life (po, 40 mg, 40 mg single oral, fasted, Japanese, read-out: Elimination t1/2 (converted)): 18.7 h | AUC(0-inf) [10]: 6200 ng·h/mL | AUC(0-t) [10]: 5150 ng·h/mL | Cmax [10]: 269 ng/mL | half-life (po, 40 mg, 40 mg single oral, fasted, White, read-out: Elimination t1/2 (converted)): 28 h | Tmax (po, 40 mg, 40 mg single oral, fasted, both Japanese and White participants, read-out: Tmax): 1.3 h
